Data reported in US4532240A, “Diaminopyrimidines” (Warner-Lambert Company, priority 1983, dated 1985).

Experiments:
S. lutea = assay: Antibacterial disk zone of inhibition, S. lutea (as headed); type: cell-based, Micrococcus luteus 05064; conditions: Micrococcus luteus, read-out: Inhibition Zone diameter; for zone of inhibition at 10 µg/mL: 0.01 mg/ml; for zone of inhibition at 3000 µg/mL: 3.0 mg/ml; for zone of inhibition at 100 µg/mL: 0.1 mg/ml
Procedure: (§1) Vegetative bacterial isolates are maintained on agar slants or in liquid media, hereby designated as inoculum media. The cultures are transferred at regular intervals in such media. (See Table IV for the corresponding inoculum media of each culture.) The organisms are generally transferred either onto agar slants or into liquid inoculum media and incubated at 37° C. (at 28° C. with Xanthomonas sp.) overnight (18-20 hours).
(§2) The microbial cells from the overnight agar slants are then scraped off and suspended in saline solution (0.85% NaCl). The microbial concentrations are adjusted to a light transmission of 8.6% using a PerkinElmer Model 35 spectrophotometer (550 nm). For the organisms that are maintained in liquid media, one of two procedures is followed: (1) the culture suspension is first centrifuged at 5000 rpm for five minutes. The pellet is resuspended in 0.85% saline to 8.6% light transmittancy; (2) an aliquot of the culture suspension is to be added directly to the assay medium.
(§3) A given molten-agar assay medium, maintained in a flask at approximately 45° C., is inoculated with 0.16-10 ml of an appropriate cell or spore suspension per 100 ml of medium. Fifty ml of the inoculated medium is poured into a Bio-Assay dish (A/S Nunc; Gibco Laboratories Catalog Number 240835) and spread evenly across the bottom, then allowed to solidify at room temperature. Each agar dish is inverted and refrigerated until used.
(§4) The compounds or samples to be tested are dissolved in suitable solvents, e.g., alcohols, dimethylsulfoxide, or N,N-dimethylformamide. The samples are generally dissolved so that the final concentration of the solvent is <10%.* The compounds are tested at different concentrations: 3,000; 1,000; 500; 100; and 10 mcg/ml. Paper discs (12.7 mm diameter) saturated with a given concentration of test compound are placed onto the seeded agar dishes with a pair of forceps.
(§5) The disked agar dishes are incubated at 37° C. (28° C. for Xanthamonas sp.) for 18-20 hours. Active compounds show a zone of inhibition around the disc. The diameter of the zone is measured in mm. The zone diameter of active compounds ranges from a minimum of 13.5 mm to as high as 60 mm. The size of the zone diameter generally reflects the activity of the compound: the larger the zone the greater the activity.

[1] = tested on: HCT-8 (human colon adenocarcinoma) cells; assay: In vitro activity against HCT-8 human colon adenocarcinoma cells; type: cell-based; conditions: HCT-8, 60-65 hours with compound, 37° C., read-out: ID50 against human colon adenocarcinoma
Procedure: HCT-8 (human colon adenocarcinoma) cells are trypsinized using Trypsin-EDTA. A single cell suspension is achieved by passing the cells through a 26 gauge needle with a 20 cc syringe. A cell suspension is prepared using RPMI 1640+10% FCS+50 μg/ml garamycin with a cell concentration of approximately 30,000 cells/ml. The cell suspension is dispensed in Linbro 24-well plates; 1 ml/well. The plates are incubated for approximately 48 hours at 37° C. in a 5% CO2 atmosphere. At this time test compounds are added in the appropriate concentration. Five μl of the 200 μg/ml stock solution is added to each well in a primary test. Ten μl of the appropriate dilution is added to each well for a titration test. The plates are reincubated an additional 60-65 hours at 37° C. in a 5% CO2 atmosphere. The test is read by lysing the cells using a mix of cationic surfactant, glacial acetic acid and sodium chloride. […] of the lysed cell suspension from each well is added to 8 ml of diluent. Each sample is read on the Coulter counter (ZBI model). The activity of each sample is measured as a percentage of the controls and the data is reported as ID50, that is the molar quantity of drug required to kill 50% of the tumor cells.

B. subtilis = assay: Antibacterial disk zone of inhibition, B. subtilis; type: cell-based, Bacillus subtilis 04555; conditions: Bacillus subtilis, read-out: Inhibition Zone diameter; for zone of inhibition at 100 µg/mL: 0.1 mg/ml; for zone of inhibition at 3000 µg/mL: 3.0 mg/ml
Procedure: as §1, §2
Isolate spore suspensions (Bacillus sp.) are maintained at 4° C. These suspensions serve as the inoculum media for assays.
as §3, §4, §5

L1210 cells = assay: In vitro antitumor screening on L1210 murine leukemia cell line (growth, Coulter counter); type: cell-based; conditions: Mus musculus, L1210, 72 h; three days, 37° C., 5% CO2; read-out: L1210 Leukemia in vitro ID50
Procedure: L1210 cells, a murine leukemia cell line, were grown in RPMI 1640 supplemented with 5% fetal bovine serum and gentamicin (50 μg/ml).
Drug dilutions were prepared in the appropriate solvent and 20 μl of each dilution were added to 24-well Linbro tissue culture plates, followed by the addition of M 2.0 ml of cell suspension containing 3×10^4cells per ml. Solvent and medium controls were included in each test. After incubation at 37° C. for three days in 5% CO2, the contents of each well were removed and the cells counted in a ZBI Coulter counter. Percent growth was calculated relative to the controls and the levels of drug activity were expressed as ID50 in moles per liter using probit paper.

M. faecalis = assay: Antibacterial disk zone of inhibition, M. faecalis (as headed); type: cell-based, Streptococcus faecalis 05045; conditions: Enterococcus faecalis, read-out: Inhibition Zone diameter; for zone of inhibition at 100 µg/mL: 0.1 mg/ml; for zone of inhibition at 10 µg/mL: 0.01 mg/ml
Procedure: as §1, §2, §3, §4, §5

X. phaseoli = assay: Antibacterial disk zone of inhibition, X. phaseoli; type: cell-based, Xanthomonas phascoli 06002; conditions: Xanthomonas; 3.0 mg/ml; read-out: Inhibition Zone diameter
Procedure: as §1, §2, §3, §4, §5

P388 Leukemia = assay: In vivo lymphocytic leukemia P388 test in mice; set-up: species or system CD2 F1 mice; conditions: intraperitoneal, two single doses four days apart
Procedure: The in vivo lymphocytic leukemia P388 test is carried out using the test system of the United States National Cancer Institute. The animals used are either male or female CD2 F1 mice. There are six to seven animals per test group. The tumor transplant is by intraperitoneal injection of dilute ascitic fluid containing cells of lymphocytic leukemia P388. The test compounds are administered intraperitoneally in two single doses with a four-day interval between doses at various dose levels following tumor inoculation. The animals are weighed and survivors are recorded on a regular basis for 30 days. A ratio of survival time for treated (T)/control (C) animals is calculated. The criterion for efficacy is T/C×100>125%. The positive control compound in this test is 5-fluorouracil. See Cancer Chemotherapy Reports, Part 3, 3, 1 (1972) for a comprehensive discussion of the protocol.

B. catarrhalis = assay: Antibacterial disk zone of inhibition, B. catarrhalis; type: cell-based, Branhamella catarrhalis 03596; conditions: Moraxella catarrhalis, read-out: Inhibition Zone diameter; for zone of inhibition at 100 µg/mL: 0.1 mg/ml; for zone of inhibition at 500 µg/mL: 0.5 mg/ml; for zone of inhibition at 3000 µg/mL: 3.0 mg/ml
Procedure: as §1, §2, §3, §4, §5

Structure (SMILES) | zone of inhibition at 10 µg/mL (S. lutea) | IC50 [1] | zone of inhibition at 100 µg/mL (B. subtilis) | IC50 (L1210 cells) | zone of inhibition at 100 µg/mL (M. faecalis) | zone of inhibition at 3000 µg/mL (X. phaseoli) | T/C × 100 (P388 Leukemia; 6.25 mg/kg) | T/C × 100 (P388 Leukemia; 12.5 mg/kg) | T/C × 100 (P388 Leukemia; 25 mg/kg) | T/C × 100 (P388 Leukemia; 50 mg/kg) | zone of inhibition at 100 µg/mL (B. catarrhalis) | zone of inhibition at 3000 µg/mL (S. lutea) | zone of inhibition at 10 µg/mL (B. subtilis; 0.01 mg/ml) | zone of inhibition at 10 µg/mL (M. faecalis) | zone of inhibition at 500 µg/mL (B. catarrhalis) | zone of inhibition at 100 µg/mL (S. lutea) | zone of inhibition at 3000 µg/mL (B. subtilis) | zone of inhibition at 3000 µg/mL (B. catarrhalis) | zone of inhibition at 1000 µg/mL (S. lutea; 1.0 mg/ml)
CC(=O)c1ccc(N2CCN(c3c(C)nc(N)nc3N)CC2)cc1 [Example 5, 5-[4-(4-acetylphenyl)-1-piperazinyl]-6-methyl-2,4-pyrimidinediamine, hydrate (100:18)] | 14 mm | 510 nM | 23 mm | 5 nM | 16 mm | 0 mm | 123% | 144% | 181% | 250% | 24 mm |  |  |  |  |  |  |  | 
Cc1nc(N)nc(N)c1N1CCN(c2ccc(S(C)(=O)=O)cc2)CC1 [Example 9, 6-Methyl-5-[4-[4-(methylsulfonyl)phenyl]-1-piperazinyl]-2,4-pyrimidinediamine, hydrate (10:2)] |  | 61 nM |  | 5.6 nM |  | 0 mm | 128% | 131% | 140% | 198% |  | 0 mm | 29 mm | 18 mm | 14 mm |  |  |  | 
CCc1nc(N)nc(N)c1N1CCN(c2ccc(C(=O)O)cc2)CC1 [Example 11, 4-[4-(2,4-Diamino-6-ethyl-5-pyrimidinyl)-1-piperazinyl]benzoic acid] | 16 mm | 570 nM | 18 mm | 10 nM |  | 0 mm |  |  |  |  |  |  |  | 19 mm | 27 mm |  |  |  | 
CCCc1nc(N)nc(N)c1N1CCN(c2ccc(C(=O)O)cc2)CC1 [Example 15, 4-[4-(2,4-Diamino-6-propyl-5-pyrimidinyl)-1-piperazinyl]benzoic acid] |  | 280 nM |  | 43 nM |  | 0 mm |  |  |  |  |  |  |  | 15 mm | 19 mm | 16 mm | 0 mm |  | 
CCCc1nc(N)nc(N)c1N1CCN(c2ccc(C(=O)OCC)cc2)CC1 [Example 18, 4-[4-(2,4-Diamino-6-propyl-5-pyrimidinyl)-1-piperazinyl]benzoic acid, ethyl ester] |  | 210 nM |  | 9.3 nM |  | 0 mm |  |  | 120% | 149% | 15 mm |  |  | 15 mm |  | 16 mm | 0 mm |  | 
Cc1nc(N)nc(N)c1N1CCN(c2ccc(C#N)cc2)CC1 [Example 19, 5-[4-(4-cyanophenyl)-1-piperazinyl]-6-methyl-2,4-pyrimidinediamine] |  | > 1000 nM |  | 1500 nM | 15 mm | 0 mm |  |  |  |  |  | 0 mm |  |  |  |  | 0 mm | 0 mm | 
CCCc1nc(N)nc(N)c1N1CCN(c2ccc(C(=O)NC(CCC(=O)O)C(=O)O)cc2)CC1 (stereo not drawn) [drawing 24] |  |  |  |  | 16 mm | 0 mm |  |  |  |  |  |  |  |  |  |  | 0 mm | 18 mm | 16 mm
